Results as given in patent US8586577B2, “Diazepane acetamide derivatives as selective 11B-HSD1 inhibitors” (Merck Patent GmbH, priority 2006, dated 2013).
Values belong to the molecule of their own block, whether it stands above or below them.

How the values were obtained:
Format in all cases: biochemical
mouse 11-beta HSD-1 = target: T1, mouse 11-beta HSD-1 (Mus musculus, UniProt P50172); assay: 11beta-HSD1 enzyme assay, mice liver microsome fractions, HTRF cortisol detection; conditions: for IC50: read-out: Inhibition of mouse 11-beta HSD-1 IC50
T1 construct: or as microsome fractions from mice liver (2.5 μg); tissue TEBU; host or cells: mouse liver microsome fractions
T1 sequence (P50172 whole entry): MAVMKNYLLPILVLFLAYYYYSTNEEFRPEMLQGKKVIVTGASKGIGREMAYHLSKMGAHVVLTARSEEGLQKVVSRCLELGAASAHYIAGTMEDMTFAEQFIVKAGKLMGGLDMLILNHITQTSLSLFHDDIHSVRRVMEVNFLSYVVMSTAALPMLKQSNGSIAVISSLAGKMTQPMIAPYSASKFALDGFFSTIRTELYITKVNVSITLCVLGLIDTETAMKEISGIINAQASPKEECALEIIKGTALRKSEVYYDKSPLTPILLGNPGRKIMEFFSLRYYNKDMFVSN
Procedure: (§1) Human recombinant 11beta-hydroxysteroid dehydrogenase type 1 (11beta-HSD1) enzyme and type 2 (11beta-HSD2) enzymes were expressed expressed in E. coli. Mice liver microsome fractions were purchased from TEBU.
(§2) The 11beta-HSD1 enzyme assay was carried out in 96 well microliter plates in a total volume of 100 μl containing 30 mM Hepes buffer, pH 7.4 with 1 mM EDTA, substrate mixture cortisone/NADPH (200 nM/200 μM), G-6-P (1 mM) and inhibitors in serial dilutions. Reactions were initiated by addition of 10 μl 11beta-HSD1 (3 μg) from E. coli, or as microsome fractions from mice liver (2.5 μg). Following mixing, the plates were shaken for 150 minutes at 37° C. The reactions were terminated with 10 μl Acid-18beta glycyrrhetinic stop solution. Determinations of cortisol levels in 11 beta-HSD1 preparations were monitored by HTRF (HTRF cortisol assay from C is bio international).
(§3) Activity is expressed in % of control or concentration to inhibit 50% of the enzyme activity (IC50).

human 11-beta HSD-2 = target: T2, human 11-beta HSD-2 (Homo sapiens, UniProt P80365); assay: 11beta-HSD2 enzyme assay, human recombinant enzyme (cortisol, NAD, carbenoxolone stop); conditions: for IC50: read-out: Inhibition of human 11-beta HSD-2 IC50; for Selectivity Ratio human HSD2/HSD1: ratio of IC50 human HSD-2 to human HSD-1
T2 construct: made in house; host or cells: E. coli
T2 sequence (P80365 1-405): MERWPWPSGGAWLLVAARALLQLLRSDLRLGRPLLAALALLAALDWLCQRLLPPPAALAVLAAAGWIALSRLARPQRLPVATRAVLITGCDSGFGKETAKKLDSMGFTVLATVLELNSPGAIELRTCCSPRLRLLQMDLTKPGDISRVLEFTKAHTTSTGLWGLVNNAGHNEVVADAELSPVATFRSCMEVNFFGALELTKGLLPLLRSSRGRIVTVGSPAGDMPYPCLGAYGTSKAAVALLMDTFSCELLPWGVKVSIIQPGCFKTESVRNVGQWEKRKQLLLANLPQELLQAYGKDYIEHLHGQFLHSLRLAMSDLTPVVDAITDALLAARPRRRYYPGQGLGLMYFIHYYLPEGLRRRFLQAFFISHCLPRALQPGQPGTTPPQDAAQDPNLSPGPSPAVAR
Procedure: [Worded in the source for another target; used here, by the source, with some conditions changed.] as §1, §2, §3

human 11-beta HSD-1 = target: T3, human 11-beta HSD-1 (Homo sapiens, UniProt P28845); assay: 11beta-HSD1 enzyme assay, human recombinant enzyme from E. coli, HTRF cortisol detection; conditions: cortisone/NADPH 200 nM/200 μM, 150 min at 37° C., read-out: Inhibition of human 11-beta HSD-1 IC50
T3 construct: made in house; host or cells: E. coli
T3 sequence (P28845 whole entry): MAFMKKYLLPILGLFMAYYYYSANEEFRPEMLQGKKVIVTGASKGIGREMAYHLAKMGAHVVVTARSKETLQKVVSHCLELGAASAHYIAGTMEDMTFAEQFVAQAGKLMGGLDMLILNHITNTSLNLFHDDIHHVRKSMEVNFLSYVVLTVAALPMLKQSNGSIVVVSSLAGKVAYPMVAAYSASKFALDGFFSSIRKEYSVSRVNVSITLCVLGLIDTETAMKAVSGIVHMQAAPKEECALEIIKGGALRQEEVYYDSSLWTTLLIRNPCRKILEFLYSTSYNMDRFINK
Procedure: as §1, §2, §3

Compound: O=C(CN1CCCN(S(=O)(=O)c2ccccc2Cl)CC1)N1CCCC2CCCCC21 (centres unmarked) [Ex 2, 2-[4-(2-Chloro-benzenesulfonyl)-[1,4]diazepan-1-yl]-1-(octahydro-quinolin-1-yl)-ethanone]
IC50 (mouse 11-beta HSD-1): 0.25 µM
Inhibition of human 11-beta HSD-2, activity in % of control (human 11-beta HSD-2; at 10 μM, human recombinant enzyme): 81% of Ctrl

Compound: O=C(CN1CCCN(S(=O)(=O)c2ccccc2F)CC1)N1CCCC2CCCCC21 (centres unmarked) [Ex 2-1, 2-[4-(2-Fluoro-benzenesulfonyl)-[1,4]diazepan-1-yl]-1-(octahydro-quinolin-1-yl)-ethanone]
IC50 (human 11-beta HSD-1): 0.027 µM
Inhibition of mouse 11-beta HSD-1, activity in % of control (mouse 11-beta HSD-1; at 1 μM): 53% of Ctrl
IC50 (human 11-beta HSD-2; human recombinant enzyme): 3 µM
Selectivity Ratio human HSD2/HSD1 (human 11-beta HSD-2): 111

Compound: O=C(CN1CCCN(S(=O)(=O)c2c(F)cccc2F)CC1)N1CCCC2CCCCC21 (centres unmarked) [Ex 2-2, 2-[4-(2,6-Difluoro-benzenesulfonyl)-[1,4]diazepan-1-yl]-1-(octahydro-quinolin-1-yl)-ethanone]
IC50 (human 11-beta HSD-1): 0.017 µM

Compound: O=C(CN1CCCN(S(=O)(=O)c2ccccc2F)CC1)N(C1CCCCC1)C1CC1 [Ex 3, N-Cyclohexyl-N-cyclopropyl-2-[4-(2-fluoro-benzenesulfonyl)-[1,4]diazepan-1-yl]-acetamide]
IC50 (human 11-beta HSD-1): 0.076 µM
IC50 (mouse 11-beta HSD-1): 0.23 µM
IC50 (human 11-beta HSD-2; human recombinant enzyme): 7 µM
Selectivity Ratio human HSD2/HSD1 (human 11-beta HSD-2): 92

Results, then the molecule that gave them:

IC50 (human 11-beta HSD-1): 0.43 µM
Compound: CN(C(=O)CN1CCCN(S(=O)(=O)c2ccccc2F)CC1)C1CCCCC1 [Ex 3-3, N-Cyclohexyl-2-[4-(2-fluoro-benzenesulfonyl)-[1,4]diazepan-1-yl]-N-methyl-acetamide]

IC50 (human 11-beta HSD-1): 0.42 µM
Compound: O=C(CN1CCCN(S(=O)(=O)c2ccccc2Cl)CC1)N1CCCCC1 [Ex 3-6, 2-[4-(2-Chloro-benzenesulfonyl)-[1,4]diazepan-1-yl]-1-piperidin-1-yl-ethanone]

IC50 (human 11-beta HSD-1): 0.122 µM
Compound: O=C(CN1CCCN(S(=O)(=O)c2ccccc2F)CC1)N1CCC2(C=Cc3ccccc32)CC1 [Ex 3-10, 2-[4-(2-fluoro-benzenesulfonyl)-[1,4]diazepan-1-yl]-1-spiro[1H-inden-1,4′piperidin-1-yl)-ethanone]
